From paper PMC6110851, “An Optimized MicroPET Imaging Method for the Distribution and Synergies of Natural Products” (Frontiers in Pharmacology, 2018) come the findings set out here.

One series has as its system NF-κB. In words: NF-κB dual luciferase reporter assay in TNF-stimulated HEK 293 T cells. Format: cell-based. The following applies: 10 μmol/L, HEK 293T stimulated by TNF-α, P < 0.05. The procedure: The separation process was repeated five times for use in the activity tests. […] After 48 h, radioactive elements had decayed, the residues were stored at 4°C for anti-inflammatory activity tests ([Dong et al., 2013]; [Qingxin et al., 2016]).
HEK 293 T cells were cultured in standard Dulbecco’s modified Eagle’s medium (DMEM; Hyclone) supplemented with 10% fetal bovine serum (FBS; Biological Industries). The cells were placed in 96-well plates at 37°C in an air-CO2 environment (95/5% v/v). Cells were grown to 80–90% confluence and incubated for 12 h in DMEM without FBS. Transfection (20 h) was performed according to the manufacturer’s instructions. HEK 293 T cells were pretreated with drugs 1 h prior to TNF-stimulation (5 ng/mL) for 6 h. Dex (10^-5mol/L) was used as a positive control for NF-κB inhibition. The NF-κB activity was assayed using dual luciferase reporter assay system (Promega) according to the manufacturer’s instructions ([Qingxin et al., 2016]). Antiinflammatory activity was calculated as the ratio of firefly luciferase activity to Renilla luciferase activity (internal control).
For orientation: A reporter such as luciferase makes a cellular process visible.

The nature of series [1]: MicroPET biodistribution of [^18F]-GA in mice. Format: in vivo. The procedure:
The mice were grouped by weight and housed in cages of the climate control room (25°C), with a photoperiod 12:12-h. During feeding, mice were free to access food and water. Mice were fasted for 24 h before the experiment. The mice were anesthetized with 4% isoflurane while preparing for scanning ([Constantinescu et al., 2013b]; [Cui et al., 2017]). Eighteen healthy male Kunming mice, weighing 20 ± 2 g, were divided into three groups, which were control group, once-administered (OA) group and long-term administration (LA) group. In the OA group, 1 h before the administration of [^18F]-GA, the mice were orally treated with PG polysaccharides. In the LA group, the mice were orally given the PG polysaccharides for 7 days, but not before the administration of [^18F]-GA.
Rice received a tail vein injection (8.67 ± 2.14 MBq/μg) of [^18F]-GA and placed in the scanner bed and mouse-imaging room immediately ([Constantinescu et al., 2013b]; [O’Doherty et al., 2017]). Firstly, 2 h PET scanning was performed using an Inveon-dedicated PET scanner. The average delay between injection and starting of PET scanning was 3.5 min. Rice were maintained stable under 4% isoflurane anesthesia throughout scanning. The PET list-mode data were dynamically classified into 23 3D sinograms of span and three ring difference. After Fourier recombination, the data were reconstructed using a 2D ordered-subset expectation maximization algorithm. Random events were excluded before reconstruction. The response of detector is normalized using a component-based approach. All dynamic images were corrected for radioactive decay automatically. The PET images were reconstructed by a cone beam algorithm into 480 × 480 × 632 image arrays. After the reconstruction, images were spatially transformed to match the PET images ([Constantinescu et al., 2013a],[b]).
The reconstruction of the image was performed using the PMOD software (PMOD Technologies). The 3D volumes of interest (VOIs) were drawn manually of the following organs: brain, heart, liver, lungs, kidneys, cortical bone, and gallbladder. The organs were carefully identified and VOIs were drawn as irregular contours on high-resolution PET images obtained from each mouse ([Constantinescu et al., 2013b]; [Garg et al., 2017]). The size of each VOI was less than the actual size of each organ to minimize the effects of PET on adjacent organ spills. The VOIs drawing was verified by a second operator. The VOIs of cortical bone were generated by first using PET image to depict the entire femur bone ([Constantinescu et al., 2013b]). The VOI was transferred to a dynamic PET image and the mean time-activity curve (TAC) of the decay correction was extracted for each target organ ([Constantinescu et al., 2013b]).

Molecules are shown by their SMILES.

For the molecule `C[C@@H]1C[C@H]2[C@@H]3CCC4=CC(=O)C=C[C@]4(C)[C@@]3(F)[C@@H](O)C[C@]2(C)[C@@]1(O)C(=O)CO` [Dex, reference compound], the NF-κB inhibitory effect entry in the series on NF-κB was “significant NF-κB inhibitory effects”.

For `CC1(C)[C@@H](O)CC[C@]2(C)[C@H]3C(=O)C=C4[C@@H]5C[C@@](C)(C(=O)O)CC[C@]5(C)CC[C@@]4(C)[C@]3(C)CC[C@@H]12` [GA, Glycyrrhetic acid, reference compound], the “passage of the blood brain barrier” value in series [1] (mice, concluded from brain concentrations) is “could not pass the blood brain barrier”. Moreover, the “concentration in the brain of the mouse” value in series [1] (results obtained from PET) was “very low, almost undetectable”.
